Key:
[1] = system: pYSTAT5 in erythroid cells (CD45lo, CD71hi) from bone marrow; assay: Ex vivo pYSTAT5 flow cytometry in erythroid cells from JAK2 V617F positive patients; type: cell-based, human; conditions: 3 μM to 0.0041 μM, one hour, erythropoietin stimulated 10 minutes, patient bone marrow
Description: To assess the activity of small molecule inhibitors of JAK2 an assay has been developed to quantify the activity of the JAK-STAT pathway by measuring the phosphorylation status of the downstream protein STAT5. After ligand binding, a haemopoietic cytokine receptor undergoes conformational change activating associated JAK2 protein. Activated JAK2 then phosphorylates the intracellular portion of the receptor forming binding sites for the recruitment of intracellular signaling proteins. […]
Results of flow cytometry experiments are presented in two different formats (FIG. 7C). The pYSTAT5 positive population is quantitated as the percentage of cells in the upper right quadrant of the dot plot graphs (FIGS. 7A and B). […]
The second format of presentation is presented in the right panel of FIG. 7C. This measurement represents the mean fluorescence intensity in the pYSTAT5 channel and includes both erythroid cells that are stimulated by EPO and those that are not. This is an absolute value measurement of fluorescence and there was variability between these values between the three individuals tested. As the concentration of inhibitor is decreased the mean fluorescence of the total erythroid population moved towards the value of the positive control.

[2] = system: Ba/F3 TelJAK2 cells; assay: Subcutaneous tumour model of Ba/F3 TelJAK2 cells in nude mice; type: in vivo, mouse; conditions: for tumour volumes compared to Vehicle Control Treated Group: after 14 days of dosing; for mean percentage T/C: dosing day 14
Experimental: Dosing commenced 11 days post-tumour cell inoculation, when tumours were palpable (mean tumour volume of 6 mm^3). Tumour dimensions were measured twice weekly.

[3] = system: BaF3 TELJAK cells (BafT_J2); assay: Cellular screening, BaF3 TELJAK2 cells (Alamar Blue); type: cell-based; conditions: Mus musculus, BaF3; 48-72 hr incubation; read-out: BafT_J2_IC50_μM
Experimental: For screening purposes, compounds were diluted in 96 well plates at a concentration of 20 μM. Plates were warmed at 37° C. for 30 minutes before the assay was performed.
A TEL/Jak2 fusion was generated by digestion of the TELPCR product with BamH I/Sal I restriction enzymes, digestion of the JAK2 PCR product with Sal I/Not I restriction enzymes, followed by ligation and subcloning of the ligation product into the mammalian expression Vector pTRE 2 (Clontech), which was prepared by digestion with BamH I—Not I restriction enzymes, to give the TEL/Jak2 fusion plasmid pTELJAK2.
The growth factor dependent myelomonocytic cell line BaF3 bearing the pTET-off plasmid (Clontech) was transfected with either pTELJAK2 or pTELJAK3, and the transfected cells were selected for growth-factor independent cell growth. The BaF3 wild-type cells were cultured in DMEM containing 10% FCS, 10% WEHI 3B conditioned medium. The BaF3 TELJAK cells ([…]) were cultured in DMEM 10% Tet-System Approved FBS (without WEHI 3B conditioned medium).
Cell suspensions were prepared by harvesting cells from culture (the cells used in this test were in late log phase growth with high viability.) Cells were diluted in the appropriate growth medium, as described above, to 1.1× final concentration (from 50,000 cell/mL to 200,000 cell/mL, depending on cell line).
Compounds to be tested were added (10 μL, 10× final concentration) to a flat bottomed 96-well plate. The cellular suspension (90 μL per well) was then added, and the plate incubated for 48-72 hr at 37° C., 5% CO2. Alamar Blue 10 μL per well was added and the plates returned to the incubator for a further 4-6 hours.
Result are given in table 2 where +++ is <1 μM, ++ is <5 μM and + is <20 μM

[4] = system: growth hormone-stimulated insulin-like growth factor-1 (IGF-1); assay: Growth hormone-stimulated IGF-1 concentrations in mouse plasma; type: in vivo; conditions: female C3/H mice, 50 mg/kg oral gavage 8 h and 30 min prior to GH, 6 h post-GH
Experimental: Blood samples were collected 6 h post-GH administration, and plasma IGF-1 concentrations measured using an ELISA for mouse IGF-1 (R & D Systems). Different superscripts denote significant differences (p<0.05) between groups detected by one-way ANOVA and Bonferroni's test post-hoc.

- IC50 [3]: < 1000 nM
Structure (SMILES): N#CCNC(=O)c1ccc(-c2ccnc(Nc3ccc(N4CCOCC4)cc3)n2)cc1 [Compound 3, N-(cyanomethyl)-4-(2-(4-morpholinophenyl-amino)pyrimidin-4-yl)benzamide]
- effect on pYSTAT5 (STAT5 phosphorylation) in erythroid cells [1]: dose-dependent reduction
- effect on pYSTAT5 (STAT5 phosphorylation) in erythroid cells ([1]; listed as compound 3): dose-dependent increase in inhibition
- tumour volumes compared to Vehicle Control Treated Group ([2]; 5 mg/kg): not different
- mean percentage T/C ([2]; 5 mg/kg/day oral gavage): 82%
- mean percentage T/C ([2]; 10 mg/kg b.i.d. oral gavage): 25%
- tumour volumes compared to Vehicle Control Treated Group ([2]; 10 mg/kg b.i.d., t-test p<0.05): smaller tumour volumes
- mean percentage T/C ([2]; 20 mg/kg b.i.d. oral gavage): 39%
- tumour volumes compared to Vehicle Control Treated Group ([2]; 20 mg/kg b.i.d., t-test p<0.05): smaller tumour volumes
- plasma IGF-1 concentration [4]: marked decrease
